Laboratory results as given in article PMC7498324, “Structure and mechanism of CutA, RNA nucleotidyl transferase with an unusual preference for cytosine” (Nucleic Acids Research, 2020).

System: T1, CutA (TtCutA)
T1 construct: TtCutA^240-603
Experiment: fluorescence anisotropy competition with ATP-Cy5
Format: binding, Thermothielavioides terrestris

SMILES | IC50 [nM]
Nc1ncnc2c1ncn2[C@@H]1O[C@H](COP(=O)(O)OP(=O)(O)OP(=O)(O)O)[C@@H](O)[C@H]1O [ATP] | 562 ± 21
Nc1nc2c(ncn2[C@@H]2O[C@H](COP(=O)(O)OP(=O)(O)OP(=O)(O)O)[C@@H](O)[C@H]2O)c(=O)[nH]1 [GTP] | 1050 ± 56
O=c1ccn([C@@H]2O[C@H](CO[P@@](=O)(O)O[P@@](=O)(O)OP(=O)(O)O)[C@@H](O)[C@H]2O)c(=O)[nH]1 [UTP] | 537 ± 23
Nc1ccn([C@@H]2O[C@H](COP(=O)(O)OP(=O)(O)OP(=O)(O)O)[C@@H](O)[C@H]2O)c(=O)n1 [CTP] | 467 ± 16
